{"source": "paper PMC3124649", "about": "(Journal of medicinal chemistry, 2011)", "key": {"[1]": {"conditions": "administered after food; cited from earlier work"}, "anaerobic bacteria [2]": {"test_system": "anaerobic bacteria", "experiment": "Activity against anaerobes"}, "CYP isozymes": {"test_system": "CYP isozymes", "experiment": "CYP inhibition panel", "type": "in vitro ADME"}, "[3]": {"test_system": "HBV replication (extracellular virion HBV DNA)", "experiment": "HBV virion", "type": "cell-based, hepatitis B virus", "conditions": "for activity against HBV (in words): 2.2.15 cells"}, "Dog PK study": {"experiment": "Dog PK study", "type": "in vivo"}, "Rat PK study": {"experiment": "Rat PK study", "type": "in vivo"}, "[4]": {"experiment": "Stability in human blood and plasma", "type": "in vitro ADME", "conditions": "one hour incubation"}, "Plasma protein binding": {"experiment": "Plasma protein binding", "type": "in vitro ADME", "conditions": "ADME/Tox studies"}, "HCV": {"test_system": "HCV", "conditions": "cited from earlier work"}, "[5]": {"conditions": "cited from earlier work"}, "anaerobic bacteria [6]": {"test_system": "anaerobic bacteria", "conditions": "cited from earlier work"}, "[7]": {"conditions": "cited from earlier work", "remark": "listed apart in the source"}}}
{"compound": "CC(=O)Oc1ccccc1C(=O)Nc1ncc([N+](=O)[O-])s1", "note": "[Compound 1, nitazoxanide]", "values": [{"measurement": "oral bioavailability", "setting": "[1]", "result": "about 50%"}]}
{"compound": "O=C(Nc1ncc(Cl)s1)c1ccccc1O", "note": "[Compound 3, 2-Hydroxybenzoyl-N-(5-chlorothiazol-2-yl) amide]", "values": [{"measurement": "activity against anaerobes", "setting": "anaerobic bacteria [2]", "result": "inactive"}, {"measurement": "drug-drug interactions", "setting": "CYP isozymes", "result": "nor does it show unfavourable drug-drug interactions"}, {"measurement": "effects against a panel of CYPs", "setting": "CYP isozymes", "result": "no adverse effects"}]}
{"compound": "Cc1cccc(C(=O)Nc2ncc(Cl)s2)c1O", "note": "[Compound 11]", "values": [{"measurement": "activity against HBV (in words)", "setting": "[3]", "result": "essentially inactive"}]}
{"compound": "Cc1ccc(O)c(C(=O)Nc2ncc(Cl)s2)c1", "note": "[Compound 12, 2-Hydroxy-5-methylbenzoyl-N-(5-chlorothiazol-2-yl) amide]", "values": [{"measurement": "oral absorption", "setting": "Dog PK study", "result": "not orally absorbed"}, {"measurement": "oral absorption", "setting": "Rat PK study", "result": "not orally absorbed"}, {"measurement": "stability in human blood and plasma", "setting": "[4]", "result": "complete stability"}, {"measurement": "protein bound", "setting": "Plasma protein binding", "result": "> 99", "unit": "%"}, {"measurement": "inhibition of CYP isozymes", "setting": "CYP isozymes; 14 different CYP isozymes", "result": "not an inhibitor"}]}
{"compound": "O=C(Nc1nccs1)c1ccccc1O", "note": "[Compound 16]", "values": [{"measurement": "activity against HBV (in words)", "setting": "[3]", "result": "complete loss of HBV activity"}]}
{"compound": "CC(C)c1cnc(NC(=O)c2ccccc2O)s1", "note": "[Compound 17]", "values": [{"measurement": "activity against HBV (in words)", "setting": "[3]", "result": "inactive"}]}
{"compound": "O=C(Nc1ncc(-c2ccc(Cl)cc2)s1)c1ccccc1O", "note": "[Compound 18]", "values": [{"measurement": "activity against HBV (in words)", "setting": "[3]", "result": "inactive"}]}
{"compound": "O=C(Nc1nc(-c2ccccc2)cs1)c1ccccc1O", "note": "[Compound 19]", "values": [{"measurement": "activity against HBV (in words)", "setting": "[3]", "result": "modest level of activity"}]}
{"compound": "CC(=O)Nc1cnc(NC(=O)c2ccccc2O)s1", "note": "[Compound 23, 2-Hydroxybenzoyl-N-(5-acetamidothiazol-2-yl)amide]", "values": [{"measurement": "activity against HBV (in words)", "setting": "[3]", "result": "inactive"}]}
{"compound": "CS(=O)(=O)c1csc(NC(=O)c2ccccc2O)n1", "note": "[Compound 24]", "values": [{"measurement": "inhibition of HCV", "setting": "HCV", "result": "potent inhibitor"}, {"measurement": "activity against HBV (in words)", "setting": "[3]", "result": "inactive"}]}
{"compound": "CS(=O)(=O)c1cnc(NC(=O)c2ccccc2O)s1", "note": "[Compound 25]", "values": [{"measurement": "activity against HBV (in words)", "setting": "[3]", "result": "inactive"}]}
{"compound": "N#Cc1cnc(NC(=O)c2ccccc2O)s1", "note": "[Compound 26]", "values": [{"measurement": "activity against HBV (in words)", "setting": "[3]", "result": "slight activity"}]}
{"compound": "COC(=O)c1cnc(NC(=O)c2ccccc2O)s1", "note": "[Compound 27]", "values": [{"measurement": "activity against HBV (in words)", "setting": "[3]", "result": "inactive"}]}
{"compound": "O=C(Nc1ncc(C(F)(F)F)s1)c1ccccc1O", "note": "[Compound 28]", "values": [{"measurement": "activity against HBV (in words)", "setting": "[3]", "result": "slight activity"}]}
{"compound": "CC(=O)Oc1ccccc1C(=O)Nc1ccc(Cl)cc1", "note": "[Compound 30]", "values": [{"measurement": "activity against HBV (in words)", "setting": "[3]", "result": "low potency"}]}
{"compound": "O=C(Nc1ccc(Cl)cc1)c1ccccc1O", "note": "[Compound 31]", "values": [{"measurement": "activity against HBV (in words)", "setting": "[3]", "result": "lack of activity"}]}
{"compound": "CC(=O)Oc1ccccc1C(=O)Nc1ccc(Br)cc1", "note": "[Compound 32]", "values": [{"measurement": "activity against HBV (in words)", "setting": "[3]", "result": "useful activity"}]}
{"compound": "CC(=O)Oc1ccccc1C(=O)Nc1ccc(I)cc1", "note": "[Compound 33]", "values": [{"measurement": "activity against HBV (in words)", "setting": "[3]", "result": "useful activity"}]}
{"compound": "O=C(Nc1ccc([N+](=O)[O-])cc1)c1ccccc1O", "note": "[Compound 34]", "values": [{"measurement": "activity against HBV (in words)", "setting": "[3]", "result": "inactive"}]}
{"compound": "O=C(Nc1cc(C(F)(F)F)ccc1Cl)c1ccccc1O", "note": "[Compound 35]", "values": [{"measurement": "activity against HBV (in words)", "setting": "[3]", "result": "moderate activity"}]}
{"compound": "CC(=O)Oc1ccccc1C(=O)Nc1cc(C(F)(F)F)cc(C(F)(F)F)c1", "note": "[Compound 36]", "values": [{"measurement": "activity against HBV (in words)", "setting": "[3]", "result": "moderate activity"}]}
{"compound": "Cc1cc([N+](=O)[O-])c(Cl)cc1NC(=O)c1ccccc1O", "note": "[Compound 37]", "values": [{"measurement": "activity against HBV (in words)", "setting": "[3]", "result": "good activity"}]}
{"compound": "CSc1cnc(NC(=O)c2ccccc2OC(C)=O)s1", "note": "[Compound 44]", "values": [{"measurement": "activity against HBV (in words)", "setting": "[3]", "result": "inactive"}]}
{"compound": "O=C(Nc1ncc([N+](=O)[O-])s1)c1ccccc1O[C@@H]1O[C@H](C(=O)O)[C@@H](O)[C@H](O)[C@H]1O", "note": "[Compound 58]", "values": [{"measurement": "antiviral activity", "setting": "[5]", "result": "essentially devoid of antiviral activity"}, {"measurement": "activity against anaerobic bacteria", "setting": "anaerobic bacteria [6]", "result": "moderate activity"}]}
{"compound": "O=C(Nc1ccc([N+](=O)[O-])cc1Cl)c1cc(Cl)ccc1O", "note": "[Niclosamide, reference compound]", "values": [{"measurement": "aqueous solubility", "setting": "[7]", "result": "poor"}, {"measurement": "activity against HBV (in words)", "setting": "[3]", "result": "inactive"}, {"measurement": "EC50", "setting": "[3]; Hepatitis B virus, read-out: EC50 (VIR)", "result": "> 10", "unit": "µM"}]}
